Results published in article PMC3124649 (Journal of medicinal chemistry, 2011).
pEC50: −log10 of the molar value.

How the values were obtained:
[1] = administered after food; cited from earlier work
anaerobic bacteria [2] = assay: Activity against anaerobes
CYP isozymes = assay: CYP inhibition panel; format: in vitro ADME
[3] = tested on: HBV replication (extracellular virion HBV DNA); assay: HBV virion; format: cell-based, hepatitis B virus; conditions: for activity against HBV (in words): 2.2.15 cells
Plasma protein binding = format: in vitro ADME; conditions: ADME/Tox studies
[4] = Stability in human blood and plasma; format: in vitro ADME; conditions: one hour incubation
Rat PK study = format: in vivo
Dog PK study = format: in vivo
HCV = conditions: cited from earlier work
anaerobic bacteria [5] = conditions: cited from earlier work
[6] = cited from earlier work
[7] = cited from earlier work; remark: listed apart in the source

## CC(=O)Oc1ccccc1C(=O)Nc1ncc([N+](=O)[O-])s1 [Compound 1, nitazoxanide]
[1]
  oral bioavailability: about 50%

## O=C(Nc1ncc(Cl)s1)c1ccccc1O [Compound 3, 2-Hydroxybenzoyl-N-(5-chlorothiazol-2-yl) amide]
Anaerobic bacteria [2]
  activity against anaerobes: inactive
CYP isozymes
  drug-drug interactions: nor does it show unfavourable drug-drug interactions
  effects against a panel of CYPs: no adverse effects

## Cc1cccc(C(=O)Nc2ncc(Cl)s2)c1O [Compound 11]
[3]
  activity against HBV (in words): essentially inactive

## Cc1ccc(O)c(C(=O)Nc2ncc(Cl)s2)c1 [Compound 12, 2-Hydroxy-5-methylbenzoyl-N-(5-chlorothiazol-2-yl) amide]
Plasma protein binding
  protein bound: > 99%
CYP isozymes; 14 different CYP isozymes
  inhibition of CYP isozymes: not an inhibitor
[4]
  stability in human blood and plasma: complete stability
Rat PK study
  oral absorption: not orally absorbed
Dog PK study
  oral absorption: not orally absorbed

## O=C(Nc1nccs1)c1ccccc1O [Compound 16]
[3]
  activity against HBV (in words): complete loss of HBV activity

## CC(C)c1cnc(NC(=O)c2ccccc2O)s1 [Compound 17]
[3]
  activity against HBV (in words): inactive

## O=C(Nc1ncc(-c2ccc(Cl)cc2)s1)c1ccccc1O [Compound 18]
[3]
  activity against HBV (in words): inactive

## O=C(Nc1nc(-c2ccccc2)cs1)c1ccccc1O [Compound 19]
[3]
  activity against HBV (in words): modest level of activity

## CC(=O)Nc1cnc(NC(=O)c2ccccc2O)s1 [Compound 23, 2-Hydroxybenzoyl-N-(5-acetamidothiazol-2-yl)amide]
[3]
  activity against HBV (in words): inactive

## CS(=O)(=O)c1csc(NC(=O)c2ccccc2O)n1 [Compound 24]
[3]
  activity against HBV (in words): inactive
HCV
  inhibition of HCV: potent inhibitor

## CS(=O)(=O)c1cnc(NC(=O)c2ccccc2O)s1 [Compound 25]
[3]
  activity against HBV (in words): inactive

## N#Cc1cnc(NC(=O)c2ccccc2O)s1 [Compound 26]
[3]
  activity against HBV (in words): slight activity

## COC(=O)c1cnc(NC(=O)c2ccccc2O)s1 [Compound 27]
[3]
  activity against HBV (in words): inactive

## O=C(Nc1ncc(C(F)(F)F)s1)c1ccccc1O [Compound 28]
[3]
  activity against HBV (in words): slight activity

## CC(=O)Oc1ccccc1C(=O)Nc1ccc(Cl)cc1 [Compound 30]
[3]
  activity against HBV (in words): low potency

## O=C(Nc1ccc(Cl)cc1)c1ccccc1O [Compound 31]
[3]
  activity against HBV (in words): lack of activity

## CC(=O)Oc1ccccc1C(=O)Nc1ccc(Br)cc1 [Compound 32]
[3]
  activity against HBV (in words): useful activity

## CC(=O)Oc1ccccc1C(=O)Nc1ccc(I)cc1 [Compound 33]
[3]
  activity against HBV (in words): useful activity

## O=C(Nc1ccc([N+](=O)[O-])cc1)c1ccccc1O [Compound 34]
[3]
  activity against HBV (in words): inactive

## O=C(Nc1cc(C(F)(F)F)ccc1Cl)c1ccccc1O [Compound 35]
[3]
  activity against HBV (in words): moderate activity

## CC(=O)Oc1ccccc1C(=O)Nc1cc(C(F)(F)F)cc(C(F)(F)F)c1 [Compound 36]
[3]
  activity against HBV (in words): moderate activity

## Cc1cc([N+](=O)[O-])c(Cl)cc1NC(=O)c1ccccc1O [Compound 37]
[3]
  activity against HBV (in words): good activity

## CSc1cnc(NC(=O)c2ccccc2OC(C)=O)s1 [Compound 44]
[3]
  activity against HBV (in words): inactive

## O=C(Nc1ncc([N+](=O)[O-])s1)c1ccccc1O[C@@H]1O[C@H](C(=O)O)[C@@H](O)[C@H](O)[C@H]1O [Compound 58]
Anaerobic bacteria [5]
  activity against anaerobic bacteria: moderate activity
[6]
  antiviral activity: essentially devoid of antiviral activity

## O=C(Nc1ccc([N+](=O)[O-])cc1Cl)c1cc(Cl)ccc1O [Niclosamide, reference compound]
[3]
  activity against HBV (in words): inactive
[3]; Hepatitis B virus, read-out: EC50 (VIR)
  pEC50: < 5.00
[7]
  aqueous solubility: poor
